# Earlier results as cited in patent US20070092567A1 (GALEPHAR M/F, priority 2001, published 2007).
# “Also recorded” adds a separate entry of the source.
# Legend:
# [1] = molecular target: cytochrome P450 3A4 (Homo sapiens, UniProt P08684)
# [2] = molecular target: cytochrome P450 2C9 isoenzyme (Homo sapiens, UniProt P11712)
# [3] = test system: cytochrome P450 system
# [4] = not given; remark: listed apart in the source
# Chain of cytochrome P450 2C9 isoenzyme (P11712 whole entry): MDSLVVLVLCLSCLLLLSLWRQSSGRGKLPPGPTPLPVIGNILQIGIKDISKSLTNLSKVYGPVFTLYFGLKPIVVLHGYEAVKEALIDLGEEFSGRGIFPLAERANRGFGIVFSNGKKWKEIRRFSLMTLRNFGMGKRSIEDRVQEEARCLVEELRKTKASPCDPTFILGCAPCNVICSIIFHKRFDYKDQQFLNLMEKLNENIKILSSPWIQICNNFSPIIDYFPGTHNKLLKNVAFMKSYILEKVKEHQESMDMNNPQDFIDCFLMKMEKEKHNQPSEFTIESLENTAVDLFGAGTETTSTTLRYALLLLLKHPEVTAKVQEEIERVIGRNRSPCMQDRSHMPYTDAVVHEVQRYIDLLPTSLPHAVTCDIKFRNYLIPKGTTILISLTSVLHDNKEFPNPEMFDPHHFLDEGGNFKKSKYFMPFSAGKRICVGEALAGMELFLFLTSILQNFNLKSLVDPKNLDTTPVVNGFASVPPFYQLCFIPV
# Chain of cytochrome P450 3A4 (P08684 whole entry): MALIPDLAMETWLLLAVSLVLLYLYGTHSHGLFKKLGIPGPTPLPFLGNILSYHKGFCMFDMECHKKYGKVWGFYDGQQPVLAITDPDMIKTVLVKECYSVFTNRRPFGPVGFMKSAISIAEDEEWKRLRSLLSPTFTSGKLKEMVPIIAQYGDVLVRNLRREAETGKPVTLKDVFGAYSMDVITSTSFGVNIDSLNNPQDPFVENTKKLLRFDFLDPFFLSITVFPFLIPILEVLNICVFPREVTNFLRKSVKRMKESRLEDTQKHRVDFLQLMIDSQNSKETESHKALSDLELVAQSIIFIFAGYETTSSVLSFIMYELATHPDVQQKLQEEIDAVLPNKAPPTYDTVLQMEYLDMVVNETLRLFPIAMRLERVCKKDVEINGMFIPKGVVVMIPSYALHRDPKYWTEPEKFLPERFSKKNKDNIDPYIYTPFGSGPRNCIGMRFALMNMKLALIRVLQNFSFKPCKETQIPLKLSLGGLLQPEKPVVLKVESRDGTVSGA
smiles,measurement,setting,value
"CC(C)OC(=O)C(C)(C)Oc1ccc(C(=O)c2ccc(Cl)cc2)cc1 [Fenofibrate, p-(4-chlorobenzoyl)-phenoxy isobutyrate isopropyl ester]",metabolisation by cytochrome P450 3A4,[1],not metabolised by cytochrome P450 3A4
same,metabolisation by cytochrome P450 2C9 isoenzyme,[2],only weakly metabolised
CC(C)(Oc1ccc(C(=O)c2ccc(Cl)cc2)cc1)C(=O)O [fenofibric acid],mean plasma half-life,"healthy, fasting young adults",19.6 to 26.6 h
same,eliminated in the urine as fenofibric acid ester glucuronide,in vivo,60-88%
same,Peak plasma levels,single oral dose of 300 mg fenofibrate,6 to 9.5 mg/L
CC[C@H](C)C(=O)O[C@H]1C[C@H](O)C=C2C=C[C@H](C)[C@H](CC[C@@H](O)C[C@@H](O)CC(=O)O)[C@H]21 [pravastatin],metabolisation through the cytochrome P450 system,[3],not metabolised through the cytochrome P450 system; also recorded: does not involve the cytochrome P450 system
same,average oral absorption,[4]; based on urinary recovery of radiolabeled drug,34%
same,decrease of systemic bioavailability following a bedtime dose compared to morning administration,"[4]; human, in vivo",60%
